Laboratory results reported in US12162934B2, “Gremlin-1 antagonist for the prevention and treatment of cancer” (UCB BIOPHARMA SRL, priority 2018, dated 2024).

B1: rhGrem1: rhGrem1 protein used to stimulate breast cancer cells (protein)
chain: KKKGSQGAIPPPDKAQHNDSEQTQSPQQPGSRNRGRGQGRGTAMPGEEVLESSQEALHVTERKYLKRDWCKTQPLKQTIHEEGCNSRTIINRFCYGQCNSFYIPRHIRKEEGSFQSCSFCKPKKFTTMMVTLNCPELQPPTKKKRVTRVKQCRCISIDLD

Key:
[1] = test system: MDA-MB-231 human breast cancer cells; test: MDA-MB-231 breast cancer model in NSG mice (BLI); assay type: in vivo; details: vs AbA33, p>0.05
Experimental: MDA-MB-231: 5-week old NOD/SCiD/gamma (NSG) immunocompromised mice were subcutaneously (s.c) administered two 30 mg/kg doses of anti-Grem1 antibody UCB6114 or IgG control, AbA33, the week prior to tumour cell inoculation. 1×10^5 luciferase expressing MDA-MB-231 human breast cancer cells were injected systemically via the CA.
Treatment continued twice weekly for the duration of the study. At weekly intervals, mice were administered 150 mg/kg luciferin intraperitoneally (i.p) and imaged using the Xenogen IVIS Bioluminescence Imaging System, and tumour burden was quantitated using Living Image software. The study ended on day 13 and day 22 post-tumour cell injection for the PyMT-B01 and MDA-MB-231 models respectively, according to animal ethics requirements. Organs were dissected upon culling animals and BLI imaged ex vivo for analysis of tumour metastasis.

[2] = test system: PC-3 prostate cancer cells; test: PC-3 prostate cancer model in NSG mice (BLI); assay type: in vivo, human; details: vs AbA33
Experimental: The PC-3 human prostate cancer cell line was obtained from ATCC (Manassas, VA, USA). The cell line expresses luciferase produced by retroviral expression of the SFG-NES-TGL vector (Ponomarev, V., et al. 2004). Cancer cells were cultured in RPMI1640 (Life Technologies, Australia) supplemented with 10% foetal bovine serum (FBS, Life Technologies, Australia), 100 IU/mL penicillin (Life Technologies, Australia), 100 μg/mL streptomycin (Life Technologies, Australia) and 25 mM HEPES (Life Technologies, Australia) at 37° C. in a 5% CO2 humidified atmosphere.
5-week old NOD.Cg-Prkd^scid Il2rg^tm1Wjl/SzJ (NSG) immunocompromised mice were subcutaneously (s.c) administered two 30 mg/kg doses of anti-Grem1 antibody (UCB6114) or IgG control, AbA33, the week prior to tumour cell inoculation. 5×10^5 luciferase expressing PC-3 […] prostate cancer cells were injected systemically via the caudal artery (CA).
Antibody treatment continued twice weekly for the duration of the study. A t weekly intervals, mice were administered 150 mg/kg luciferin intraperitoneally (i.p) and imaged using the Xenogen IVIS Bioluminescence Imaging System, and tumour burden was quantitated using Living Image software (PerkinElmer, MA, USA). At the end of each study, organs were dissected upon culling animals and BLI imaged ex vivo for analysis of tumour metastasis.

[3] = test system: MDA-MB-231-TXSA cells; test: Proliferation assay of MDA-MB-231-TXSA cells in hypoxia (luciferase); assay type: cell-based, human; details: rhGrem1 0-1000 ng/ml
Experimental: Luciferase expressing MDA-MB-231-TXSA cells were seeded in 96-well microtiter plates (1×10^4 cells/well). Cells were cultured either under normoxic or hypoxic conditions and allowed to adhere overnight. Cells were then serum starved for 6 hrs before treatment with increasing concentrations of rhGrem1 protein (0-1000 ng/ml). At 24 and 48 hr time points, luciferase expression was evaluated and used as a surrogate measure of cell number. Briefly, cells were washed in 1×PBS, and subsequently lysed in cell culture lysis buffer (Promega). Luciferase Assay Reagent (5 mM MgCl2, 30 mM HEPES, 150 μM ATP, […] Coenzyme A and 150 μg/mL D-luciferin (Biosynth AG, Staad, Switzerland)) was added to cell lysates, and luminescence was quantified immediately using a luminometer plate reader (Wallac 3000).

Row | Molecule | Mean tumour burden (BLI) ([1]; day 22) | Mean tumour burden for lung metastasis (ex vivo BLI) [1] | Whole animal tumour burden (BLI) ([2]; 30 mg/kg s.c. twice weekly) | Hindlimb tumour burden (ex vivo BLI) [2] | Liver tumour burden (ex vivo BLI) [2] | Lung tumour burden (ex vivo BLI) [2] | Maximal increase in MDA-MB-231-TXSA proliferation, hypoxic compared to normoxic conditions ([3]; 24 hr) [fold] | Maximal increase in MDA-MB-231-TXSA proliferation, hypoxic compared to normoxic conditions ([3]; 48 hr) [fold]
1 | UCB6114: novel anti-Grem1 neutralising monoclonal antibody | lower | reduction in mean tumour burden | significant reduction | downward trend | significant reduction | downward trend |  | 
2 | B1 |  |  |  |  |  |  | 1.5 | 1.7
